From patent US6399356B1, “Process and agent for sanitation of contaminations caused by viruses” (priority 1998, dated 2002)

Key:
[1] = tested on: reo-3-virus; experiment: Sanitization of a DEAE-Sephadex chromatography column contaminated with virus
Procedure: 1 g of DEAE-Sephadex A-50 (pre-swollen) was added as a slurry in 20 ml of PBS (pH 7.2) to 500 ml of a reo-3-virus-containing aqueous solution (cell culture supernatant with 5% FCS) having a virus titer (CCID50) of 5.5 log10. After stirring for 30 min at approximately 20° C., all the material was transferred to a chromatography column and, after sedimentation of the resin, the column was emptied. The resin was then washed with 150 ml of wash buffer (0.2 M NaCl, pH 6.0 by means of KH2PO4/NaOH) and finally eluted with elution buffer (2.0 M NaCl, pH 8.0 by means of KH2PO4/NaOH). For sanitization, the column was washed (in countercurrent) with 3 column volumes of a wash buffer containing carvacrol solution (1:2000) and allowed to stand overnight at approximately 20° C. under this carvacrol solution. The column was then regenerated with wash buffer.

[2] = tested on: non-cytopathogenic pestivirus strain in MDBK cell culture; experiment: Sanitization of a cell culture: titration of cytopathogenic BVDV strain on treated MDBK indicator cells; format: cell-based
Procedure: The infection of the cell culture can be followed, inter alia, by the (fetal) calf serum necessary for cell culture.
An MDBK cell culture which is infected with a non-cytopathogenic pestivirus strain is passaged as is customary (splitting rate 1:5; Eagles Minimal Essential Medium containing 5% FCS) and two cell culture flasks are prepared. One cell culture flask remains untreated, the second cell culture flask is treated with thymol (1:50,000). Both cell culture flasks are passaged weekly, the treatment of the cell culture being carried out for 3 passages. After one passage without treatment, cells from the respective cell culture flasks are inoculated into microtiter plates and a titration (end point dilution method) of a cytopathogenic BVDV strain (Denmark) is carried out on the respective indicator cells. The cytopathogenic effect is evaluated as an indication of virus replication and the virus titer is calculated (Spaerman-Kärber method; Table 2).

[3] = carvacrol solution (1:2000) after about 16 hours' incubation at approximately 20° C. (12 ml)
[4] = wash buffer after sanitation with carvacrol, 2nd column volume (12 ml)

| Structure (SMILES) | Virus load (Titer × volume) [1, 3] | Virus titer [1, 3] | Virus titer ([1]; carvacrol solution (1:2000) in wash buffer, 1st column volume (12 ml), titer determined immediately after obtaining the sample, starting material 5.5) | Virus load (Titer × volume) ([1]; carvacrol solution (1:2000), 1st column volume (12 ml), determined immediately after obtaining the sample, starting material 8.2) | Inactivation of reo-3-virus on the column ([1]; sanitization of DEAE-Sephadex column with carvacrol solution (1:2000) overnight) | Virus load (Titer × volume) [1, 4] | Virus titer [1, 4] | Virus titer of cytopathogenic BVDV strain (Denmark) on the indicator cells ([2]; MDBK cells infected with non-cytopathogenic pestivirus, 3 passages treated with thymol (1:50,000), then one passage without treatment, untreated 3.9, starting culture 4.3) | Inactivation of non-cytopathogenic pestivirus in MDBK cells ([2]; thymol (1:50,000), 3 passages) |
| --- | --- | --- | --- | --- | --- | --- | --- | --- | --- |
| Cc1ccc(C(C)C)cc1O [Carvacrol solution, carvacrol] | ≦2.6 [log10] | ≦1.5 CCID50/ml[log10] | 4.2 CCID50/ml[log10] | 5.3 [log10] | complete inactivation of reo-3-virus below the detection limit | ≦2.6 [log10] | ≦1.5 CCID50/ml[log10] | – | – |
| Cc1ccc(C(C)C)c(O)c1 [thymol] | – | – | – | – | – | – | – | 7.6 (CCID50ml) [log10] | the non-cytopathogenic pestivirus is inactivated |
